Experimental data: patent US6204005A, “Immunoassay for toxic congeners of polychlorinated biphenyls” (priority 1995, dated 2001)

Legend:
[1] = system: antibody in serum immobilized on goat anti-rabbit second antibody coated tubes; assay: Enzyme immunoassay (EIA) with HRP competitor or Hapten I conjugates, Aroclor 1248 analyte (Method D); assay type: binding; conditions: for Assay Response (I50): assay solution concentration of Aroclor 1248 producing 50% reduction in assay control signal, HRP conjugate of the listed competitor; for Relative Response: improvement in I50 sensitivity compared to homologous (Hapten I) based assay
Experimental: Serum stored at -20° C. was diluted 1,000-40,000 fold with PBS which contained 0.1% Tween-20. This solution was dispensed (500 μl) into goat anti-rabbit second antibody coated tubes (GAR Tubes commercially available from Millipore Corp., Bedford, Mass.) and incubated at room temperature overnight. The antisera solution was decanted from the tubes and the tubes were washed 3 times with distilled water. Non-specific sites in the tubes were blocked with 600 μl of a BSA blocking buffer (EIA Blocking Buffer commercially available from Millipore Corp., Bedford, Mass.) and incubated for 2 hours at room temperature or overnight at 4° C. The blocking buffer was decanted and the tubes allowed to dry under ambient room conditions for 2 hours or overnight. The assay was performed by adding 500 μl of assay diluent (1% methanol (v/v) and 0.005% Tween-20 (w/v) in distilled water) to the required number of tubes followed by 10 μl of a methanol solution which contained 0-50 ppm of Aroclor 1248. After a 5 minute incubation at room temperature, the solution was decanted and the tubes rinsed 3-4 times with tap water. The horseradish peroxidase-(HRP) competitor conjugate or Hapten I conjugates were diluted 100-100,000 fold from 2-5 mg/ml stock solutions in PBS with conjugate diluent (Enzyme Conjugate Diluent commercially available from Millipore Corp., Bedford, Mass.). Enzyme-competitor conjugate was added in 200 μl and the tubes were incubated at room temperature for 5 minutes. The conjugate solution was decanted and the tubes rinsed 3-4 times with tap water. Enzyme substrate solution (500 μl, KPL No. 50-76-04 commercially available from KPL Laboratories, Gaithersburg, Md.) was added and the tubes were incubated at room temperature for 3-15 minutes. The enzyme reaction was stopped with the addition of 500 μl of 1N HCl. The OD of the solution was determined at 450 nm and the I50 values were determined using a correlation of Log (Aroclor 1248 Concentration in the assay solution in parts per billion=ppb) versus B/Bo ratio where B=Sample Absorbance and Bo=Absorbance of the Blank Sample.
(§1) The competitors and Hapten I were conjugated to the enzyme, amino modified Horseradish Peroxidase (HRP) (horseradish peroxidase commercially available from Sigma Chemical Co. (No. P-6782), St. Louis, Mo.; amino modified per ref R. Hsiao and H. Royer, Archives Biochem. Biophysics, 198, 379-385 (1979) to give 6-24 free amines), using the carbodiimide mediated carboxyl activation procedure described for Hapten I in Example 5.
EIA analysis of Aroclor 1248 (Method D) was performed using horseradish peroxidase (HRP) Conjugates of the competitors illustrated in FIG. 4.

[2] = relative to 2,3,7,8-TCDD = 1.0; cited from earlier work
[3] = system: Hapten VII sera (polyclonal antibodies); assay: Sera direct EIA with Hapten VII sera and competitor enzyme conjugate; assay type: binding, mice; conditions: for Assay sensitivity versus Hapten VII enzyme conjugate based assay: in words, Table 6
Experimental: as §1, with “competitors A-E” for “competitors”, “VII” for “I”, “per” for “per ref”, “Biophys.,” for “Biophysics,”, “24. Hapten and competitor load were determined by UV/Vis spectroscopy, also as described for Hapten VII.” for “5.”
The direct EIA (immoblized antibody and competitor enzyme conjugate) was performed as follows. Serum or monoclonal antibody supernatant stored at -20° C. was diluted 1,000-40,000 fold with PBS which contained 0.1% Tween-20. This solution was dispensed (500 ul) into donkey anti-mouse second antibody coated tubes (DAM Tubes commercially available from Millipore Corp., Bedford, Mass.) and incubated at room temperature overnight. The antisera solution was decanted from the tubes and the tubes washed 3 times with distilled water. Non-specific sites in the tubes were blocked with 600 ul of BSA blocking buffer (EIA Blocking Buffer commercially available from Millipore Corp., Bedford, Mass.) and incubated for 2 hours at room temperature or overnight at 4° C. The blocking buffer was decanted and the tubes allowed to dry under ambient room conditions for at least 2 hours. The assay was performed by adding 500 ul of assay diluent (1% methanol (v/v) and 0.005% Tween-20 (w/v) in distilled water) to the required number of tubes followed by 10 ul of a methanol solution of the analyte (PCB congener). After a 5 minute incubation at room temperature, the solution was decanted and the tubes rinsed 3-4 times with tap water. The horseradish peroxidase competitor or Hapten VII conjugates were diluted 1,000-60,000 fold from 2-5 mg/ml stock solutions in PBS with conjugate diluent (Enzyme Conjugate Diluent commercially available from Millipore Corp., Bedford, Mass.). The enzyme conjugate (200 ul) was added to the tubes followed by a 5 minute incubation at room temperature. The conjugate solution was decanted and the tubes rinsed 3-4 times with tap water. Enzyme substrate solution (500 ul, KPL No. 50-76-04 commercially available from KPL Laboratories, Gaithersburg, Md.) was added and the tubes were incubated at room temperature for 5-15 minutes. The enzyme reaction was stopped with the addition of 500 ul of 1N HCl. The OD of the solution was determined at 450 nm. The data was plotted using Log (Congener Concentration) versus B/Bo (B=Sample Absorbance, Bo=Sample Blank Absorbance).
The direct EIA (Method 19) was used to evaluate sera samples taken on day 120.

[4] = Table 6, I50 of analyte 3,3',4,4'-tetrachlorobiphenyl with the listed competitor, Hapten VII sera
[5] = Table 7, Hapten VII sera and Competitor D direct EIA

Structure (SMILES) | Assay Response (I50) [1] | TEF [2] | also measured
O=C(O)CCCOc1ccc(Cl)c(Cl)c1 [Competitor 16] | 31 ppb | – | Relative Response [1]: 18 fold
Clc1cc(-c2ccc(Cl)c(Cl)c2Cl)cc(Cl)c1Cl [BZ No. 157, 2,3,3',4,4',5-hexa] | – | 0.00002 | –
Clc1cc(-c2cc(Cl)c(Cl)c(Cl)c2)cc(Cl)c1Cl [BZ No. 169, 3,3',4,4',5,5-hexa] | – | 0.05 | –
Clc1ccc(-c2cc(Cl)c(Cl)c(Cl)c2Cl)cc1Cl [BZ No. 156, 2,3,3',4,4',5-hexa] | – | 0.001 | –
O=C(O)CCc1ccc(Cl)c(Cl)c1 [Competitor 9] | 47 ppb | – | Relative Response [1]: 12 fold
Clc1ccc(-c2cc(Cl)c(Cl)cc2Cl)cc1Cl [BZ No. 118, 2,3',4,4',5-penta] | – | 0.00 | –
O=C(O)CCCOc1ccc(Cl)c(Cl)c1 [Competitor B] | – | – | I50 [3, 4]: 3.5 ppb; Assay sensitivity versus Hapten VII enzyme conjugate based assay [3]: significantly more sensitive
Clc1cc(-c2cc(Cl)c(Cl)c(Cl)c2Cl)cc(Cl)c1Cl [BZ No. 189, 2,3,3',4,4',5,5'-hepta] | – | 0.001 | –
O=C(O)CCCCCOc1ccc(-c2cc(Cl)c(Cl)cc2Cl)c(Cl)c1 [Hapten I, 6-(2,2',4',5'-Tetrachlorobiphenyloxy)-4-yl hexanoic acid] | 570 ppb | – | –
O=C(O)CCCC(=O)c1ccc(Cl)c(Cl)c1 [Competitor D] | – | – | I50 [3, 4]: 3 ppb; Assay sensitivity versus Hapten VII enzyme conjugate based assay [3]: significantly more sensitive
Clc1ccc(-c2ccccc2Cl)cc1 [2,4'-dichloro-] | – | less than 0.00001 | –
Clc1ccc(Cl)c(-c2ccccc2Cl)c1 [2,2',5-trichloro-] | – | less than 0.00001 | –
O=C(O)CCCC(=O)c1ccc(Cl)c(Cl)c1 [Competitor 12] | 23 ppb | – | Relative Response [1]: 24 fold
O=C(O)CCCSc1cc(Cl)ccc1Cl [Competitor C] | – | – | I50 [3, 4]: 1.5 ppb; Assay sensitivity versus Hapten VII enzyme conjugate based assay [3]: significantly more sensitive
O=C(O)CCCC(=O)Nc1ccc(Cl)c(Cl)c1 [Competitor 13] | 2000 ppb | – | Relative Response [1]: < 1 fold
Clc1ccc(-c2cc(Cl)c(Cl)c(Cl)c2Cl)cc1 [BZ No. 114, 2,3,4,4',5-penta] | – | 0.0001 | –
O=C(O)CCCCc1cc(Cl)ccc1Cl [Competitor 11] | 18 ppb | – | Relative Response [1]: 32 fold
Clc1ccc(-c2ccc(Cl)c(Cl)c2Cl)cc1Cl [BZ No. 105, 2,3,3',4,4'-penta] | – | 0.001 | –
O=C(O)CCCOc1ccc(Cl)cc1Cl [Competitor 15] | 49 ppb | – | Relative Response [1]: 12 fold
Clc1ccc(-c2ccc(Cl)cc2)cc1 [4,4'-dichloro] | – | – | I50 [3, 5]: 4,300 ppb
O=C(O)C=Cc1ccc(Cl)c(Cl)c1 [Competitor 14] | 64 ppb | – | Relative Response [1]: 9 fold
Clc1ccc(-c2cc(Cl)c(Cl)c(Cl)c2)c(Cl)c1 [BZ No. 123, 2,3',4,4',5'-penta] | – | 0.001 | –
Clc1ccc(-c2cc(Cl)c(Cl)c(Cl)c2)cc1 [BZ No. 81, 3,4,4',5-tetra] | – | 0.01 | –
Clc1cc2c(cc1Cl)Oc1cc(Cl)c(Cl)cc1O2 [2,3,7,8-TCDD, 2,3,7,8-tetrachlorodibenzo-p-dioxin] | – | 1.0 | –
Clc1cc(Cl)c(-c2cc(Cl)c(Cl)c(Cl)c2)cc1Cl [BZ No. 167, 2,3',4,4',5,5-hexa] | – | 0.001 | –
O=C(O)CCCCCOc1ccc(-c2ccc(Cl)c(Cl)c2)cc1Cl [Hapten VII, 6-(3,3',4'-Trichlorobiphenyloxy)-4-yl hexanoic acid] | – | – | I50 [3, 4]: 30-40 ppb
Clc1ccc(-c2cc(Cl)c(Cl)cc2Cl)c(Cl)c1 [2,2',4,4',5-pentachloro-] | – | less than 0.00001 | –
Clc1ccc(-c2ccc(Cl)cc2Cl)cc1 [2,4,4',trichloro-] | – | less than 0.00001 | –
O=C(O)CCCSc1cc(Cl)ccc1Cl [Competitor 17] | 33 ppb | – | Relative Response [1]: 18 fold
Clc1ccc(Cl)c(-c2cc(Cl)ccc2Cl)c1 [2,2',5,5'-tetrachloro] | – | less than 0.00001 | I50 [3, 5]: > 20,000 ppb
